Measurements reported in ChEMBL document CHEMBL4342482 (ACS Med Chem Lett, 2020).
Activity calls are given as the source filed them. No cut-off for these calls is given here.

Columns and labels:
[1] = molecular target: T1, Phosphatidylinositol 3,4,5-trisphosphate 5-phosphatase 2 (Homo sapiens) (UniProt O15357); experiment: Binding affinity to recombinant human N-terminal His-tagged SHIP2 (419 to 832 residues) expressed in Escherichia coli Rosetta2 (DE3) cells assessed as increase in release of phosphate at 100 uM incubated for 10 mins by phosphate release assay
T1 sequence (whole entry): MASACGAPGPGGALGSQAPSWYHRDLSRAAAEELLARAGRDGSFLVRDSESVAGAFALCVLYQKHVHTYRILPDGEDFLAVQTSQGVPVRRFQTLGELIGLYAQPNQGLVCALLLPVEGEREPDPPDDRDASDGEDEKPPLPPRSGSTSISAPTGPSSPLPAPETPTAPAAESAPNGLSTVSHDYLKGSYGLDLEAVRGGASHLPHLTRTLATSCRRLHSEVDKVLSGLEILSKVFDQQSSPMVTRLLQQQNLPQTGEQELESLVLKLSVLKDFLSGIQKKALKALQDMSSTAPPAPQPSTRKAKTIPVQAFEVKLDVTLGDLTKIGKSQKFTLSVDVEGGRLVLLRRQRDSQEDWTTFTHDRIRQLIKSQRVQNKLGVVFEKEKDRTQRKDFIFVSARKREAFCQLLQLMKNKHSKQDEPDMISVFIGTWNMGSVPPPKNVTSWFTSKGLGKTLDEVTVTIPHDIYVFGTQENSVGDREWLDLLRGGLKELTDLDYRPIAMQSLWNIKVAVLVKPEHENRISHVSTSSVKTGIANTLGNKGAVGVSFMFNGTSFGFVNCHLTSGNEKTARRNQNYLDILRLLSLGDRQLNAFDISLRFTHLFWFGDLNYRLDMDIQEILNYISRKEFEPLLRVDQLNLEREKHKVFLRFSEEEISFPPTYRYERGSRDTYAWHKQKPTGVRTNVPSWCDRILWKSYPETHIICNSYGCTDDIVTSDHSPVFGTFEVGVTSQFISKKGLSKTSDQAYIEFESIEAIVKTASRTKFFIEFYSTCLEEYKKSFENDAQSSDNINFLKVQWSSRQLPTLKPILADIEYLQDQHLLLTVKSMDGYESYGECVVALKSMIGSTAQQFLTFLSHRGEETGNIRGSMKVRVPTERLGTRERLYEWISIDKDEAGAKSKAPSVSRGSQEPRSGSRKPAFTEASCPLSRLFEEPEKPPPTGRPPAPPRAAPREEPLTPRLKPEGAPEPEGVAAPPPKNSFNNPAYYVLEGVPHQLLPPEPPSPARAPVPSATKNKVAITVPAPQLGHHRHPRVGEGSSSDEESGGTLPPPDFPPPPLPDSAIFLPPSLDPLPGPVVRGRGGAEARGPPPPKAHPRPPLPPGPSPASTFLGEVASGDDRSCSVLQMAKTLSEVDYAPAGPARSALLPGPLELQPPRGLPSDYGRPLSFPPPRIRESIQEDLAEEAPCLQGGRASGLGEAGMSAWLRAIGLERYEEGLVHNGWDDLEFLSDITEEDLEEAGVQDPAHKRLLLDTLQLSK

[2] = molecular target: T2, Inositol polyphosphate-5-phosphatase A (Homo sapiens, UniProt Q14642); experiment: Inhibition of recombinant human brain INPP5A expressed in Escherichia coli incubated for 10 mins by malachite green reagent based phosphate assay
T2 sequence (Q14642 whole entry): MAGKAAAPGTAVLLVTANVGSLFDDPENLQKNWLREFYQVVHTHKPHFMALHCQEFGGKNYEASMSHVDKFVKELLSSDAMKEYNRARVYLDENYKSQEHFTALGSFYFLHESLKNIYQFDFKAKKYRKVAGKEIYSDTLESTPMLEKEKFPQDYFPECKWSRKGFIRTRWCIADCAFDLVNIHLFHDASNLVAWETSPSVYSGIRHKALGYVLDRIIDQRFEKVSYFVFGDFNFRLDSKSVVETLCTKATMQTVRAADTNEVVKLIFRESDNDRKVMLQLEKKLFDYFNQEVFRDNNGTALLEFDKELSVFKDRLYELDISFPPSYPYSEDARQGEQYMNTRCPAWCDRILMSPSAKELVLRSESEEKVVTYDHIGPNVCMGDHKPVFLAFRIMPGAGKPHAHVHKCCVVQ

[3] = molecular target: T3, Phosphatidylinositol 3,4,5-trisphosphate 5-phosphatase 2 (Homo sapiens, UniProt O15357); experiment: Displacement of 2FAMInsP5 from recombinant human N-terminal His-tagged SHIP2 (419 to 832 residues) expressed in Escherichia coli Rosetta2 (DE3) cells by fluorescence polarization assay
T3 sequence (O15357 whole entry): T1 sequence (whole entry)

[4] = molecular target: T3, Phosphatidylinositol 3,4,5-trisphosphate 5-phosphatase 2; experiment: Displacement of Ins(1,3,4,5)P4 from recombinant human N-terminal His-tagged SHIP2 (419 to 832 residues) expressed in Escherichia coli BL21 (DE3)
[5] = molecular target: Type II inositol 1,4,5-trisphosphate 5-phosphatase (Homo sapiens, UniProt P32019); experiment: Inhibition of recombinant human C-terminal His-tagged INPP5B (259 to 563 residues) expressed in Escherichia coli BL21 (DE3) incubated for 5 mins using Ins(1,4,5)P3 as substrate by malachite green reagent based phosphate assay
[6] = molecular target: T1, Phosphatidylinositol 3,4,5-trisphosphate 5-phosphatase 2 (Homo sapiens); experiment: Substrate activity at recombinant human N-terminal His-tagged SHIP2 (419 to 832 residues) expressed in Escherichia coli Rosetta2 (DE3) cells assessed as 1,2-diOH-Bz(3,4)P2 product formation at 100 uM incubated for 2 hrs in presence of AS1949490 by fluorescence based HPLC analysis
[7] = molecular target: T1, Phosphatidylinositol 3,4,5-trisphosphate 5-phosphatase 2 (Homo sapiens); experiment: Substrate activity at recombinant human N-terminal His-tagged SHIP2 (419 to 832 residues) expressed in Escherichia coli Rosetta2 (DE3) cells assessed as 3-OH-Bz(1,2,4)P3 product formation at 100 uM incubated for 2 hrs in presence of AS1949490 by fluorescence based HPLC analysis
[8] = molecular target: T1, Phosphatidylinositol 3,4,5-trisphosphate 5-phosphatase 2 (Homo sapiens); experiment: Substrate activity at recombinant human N-terminal His-tagged SHIP2 (419 to 832 residues) expressed in Escherichia coli Rosetta2 (DE3) cells assessed as 1,3-Di-OH-Bz(2,4)P2 product formation at 100 uM incubated for 2 hrs in presence of AS1949490 by fluorescence based HPLC analysis
[9] = molecular target: T1, Phosphatidylinositol 3,4,5-trisphosphate 5-phosphatase 2 (Homo sapiens); experiment: Substrate activity at recombinant human N-terminal His-tagged SHIP2 (419 to 832 residues) expressed in Escherichia coli Rosetta2 (DE3) cells assessed as 5-OH-Bz(1,2,4)P3 product formation at 100 uM incubated for 2 hrs with 100 nM to 1 mM of SHIP2 by fluorescence based HPLC analysis
[10] = molecular target: T1, Phosphatidylinositol 3,4,5-trisphosphate 5-phosphatase 2 (Homo sapiens); experiment: Substrate activity at recombinant human N-terminal His-tagged SHIP2 (419 to 832 residues) expressed in Escherichia coli Rosetta2 (DE3) cells assessed as 5-OH-Bz(1,2,4)P3 product formation at 100 uM measured upto 4 hrs by fluorescence based HPLC analysis
[11] = molecular target: T1, Phosphatidylinositol 3,4,5-trisphosphate 5-phosphatase 2 (Homo sapiens); experiment: Substrate activity at recombinant human N-terminal His-tagged SHIP2 (419 to 832 residues) expressed in Escherichia coli Rosetta2 (DE3) cells assessed as 5-OH-Bz(1,2,4)P3 product formation at 100 uM incubated for 2 hrs in presence of INS(1,3,4,5)P4 by fluorescence based HPLC analysis
[12] = molecular target: T1, Phosphatidylinositol 3,4,5-trisphosphate 5-phosphatase 2 (Homo sapiens); experiment: Substrate activity at recombinant human N-terminal His-tagged SHIP2 (419 to 832 residues) expressed in Escherichia coli Rosetta2 (DE3) cells assessed as 5-OH-Bz(1,2,4)P3 product formation at 100 uM incubated for 2 hrs by fluorescence based HPLC analysis
[13] = molecular target: T1, Phosphatidylinositol 3,4,5-trisphosphate 5-phosphatase 2 (Homo sapiens); experiment: Substrate activity at recombinant human N-terminal His-tagged SHIP2 (419 to 832 residues) expressed in Escherichia coli Rosetta2 (DE3) cells assessed as 5-OH-Bz(1,2,4)P3 product formation at 100 uM incubated for 12 hrs by fluorescence based HPLC analysis
[14] = molecular target: T1, Phosphatidylinositol 3,4,5-trisphosphate 5-phosphatase 2 (Homo sapiens); experiment: Substrate activity at recombinant human N-terminal His-tagged SHIP2 (419 to 832 residues) expressed in Escherichia coli Rosetta2 (DE3) cells assessed as 5-OH-Bz(1,2,4)P3 product formation at 100 uM incubated for 2 hrs in presence of AS1949490 by fluorescence based HPLC analysis

Sequence of Type II inositol 1,4,5-trisphosphate 5-phosphatase (P32019 whole entry, the tested form may be a part): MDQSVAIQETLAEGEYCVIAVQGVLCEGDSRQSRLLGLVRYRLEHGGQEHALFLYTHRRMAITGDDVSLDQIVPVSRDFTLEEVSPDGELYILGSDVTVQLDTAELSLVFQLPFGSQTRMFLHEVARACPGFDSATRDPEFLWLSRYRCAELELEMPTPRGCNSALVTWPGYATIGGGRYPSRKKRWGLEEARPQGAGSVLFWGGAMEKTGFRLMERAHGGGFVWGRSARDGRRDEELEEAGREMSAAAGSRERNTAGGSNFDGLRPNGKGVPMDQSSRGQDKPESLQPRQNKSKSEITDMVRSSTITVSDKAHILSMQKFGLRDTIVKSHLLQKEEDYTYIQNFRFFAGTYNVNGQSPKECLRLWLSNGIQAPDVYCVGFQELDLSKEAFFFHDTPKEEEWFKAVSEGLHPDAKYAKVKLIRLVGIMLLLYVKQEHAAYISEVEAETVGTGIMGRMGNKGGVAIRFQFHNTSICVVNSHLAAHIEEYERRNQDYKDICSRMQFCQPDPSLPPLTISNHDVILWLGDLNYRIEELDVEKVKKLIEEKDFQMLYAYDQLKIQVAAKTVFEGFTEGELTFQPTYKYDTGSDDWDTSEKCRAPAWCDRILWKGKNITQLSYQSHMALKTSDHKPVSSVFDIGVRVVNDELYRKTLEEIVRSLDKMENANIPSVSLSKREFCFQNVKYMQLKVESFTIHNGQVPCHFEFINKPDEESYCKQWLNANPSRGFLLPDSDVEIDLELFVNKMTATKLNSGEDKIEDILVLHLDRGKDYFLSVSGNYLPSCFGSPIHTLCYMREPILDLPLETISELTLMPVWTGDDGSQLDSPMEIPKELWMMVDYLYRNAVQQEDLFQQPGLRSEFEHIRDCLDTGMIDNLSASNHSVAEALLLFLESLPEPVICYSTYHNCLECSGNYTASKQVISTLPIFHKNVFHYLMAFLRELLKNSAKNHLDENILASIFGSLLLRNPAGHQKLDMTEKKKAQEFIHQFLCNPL

SMILES | Activity [1] | IC50 [2] | IC50 [3] | other results
O=P(O)(O)Oc1ccc(OP(=O)(O)O)c(OP(=O)(O)O)c1 | Active | 14 µM | 7.02 µM | 
O=P(O)(O)Oc1cccc(OP(=O)(O)O)c1OP(=O)(O)O | Active | 86 µM | 14.2 µM | IC50 [4]: > 1000 µM; IC50 [5]: 33.5 µM
O=P(O)(O)Oc1cc(OP(=O)(O)O)cc(OP(=O)(O)O)c1 | Active | 16 µM | 11.3 µM | 
O=P(O)(O)Oc1ccc(OP(=O)(O)O)c(OP(=O)(O)O)c1OP(=O)(O)O | Active | 98 µM | 2.78 µM | Activity [6]: Active; Activity [7]: inactive
O=P(O)(O)Oc1ccc(OP(=O)(O)O)c(OP(=O)(O)O)c1O |  |  |  | Activity [6]: Active; Activity [8]: inactive
O=P(O)(O)Oc1cc(OP(=O)(O)O)c(OP(=O)(O)O)cc1OP(=O)(O)O | Active | 4 µM | 1.02 µM | Activity [9]: Active; Activity [10]: Active; Activity [11]: Active; Activity [12]: Active; Activity [13]: Active; Activity [14]: inactive
O=P(O)(O)Oc1cc(OP(=O)(O)O)c(OP(=O)(O)O)c(OP(=O)(O)O)c1 | Active | 78 µM | 1.01 µM | 
